Experimental data reported in US20110059982A1, “AZAINDOLE COMPOUNDS FOR TREATMENT OF CENTRAL NERVOUS SYSTEM DISORDERS” (MERCK PATENT GESELLSCHAFT MIT BESCHRANKTER HAFTUNG, priority 2008, published 2011).

How the values were obtained:
Dopamine uptake = target: T1, Dopamine uptake (Rattus norvegicus, UniProt P23977); assay: [3H]Dopamine uptake inhibition in crude synaptosomal preparation; type: biochemical; conditions: rat brain synaptosomal preparation, [3H]DA tracer, GBR12909 as reference; read-out: IC50 (nmol/L), Dopamine
T1 construct: A crude synaptosomal membrane preparation from various regions of rat brain was prepared; from tissue; host or cells: crude synaptosomal preparation from rat brain (Sprague-Dawley)
T1 sequence (P23977 whole entry): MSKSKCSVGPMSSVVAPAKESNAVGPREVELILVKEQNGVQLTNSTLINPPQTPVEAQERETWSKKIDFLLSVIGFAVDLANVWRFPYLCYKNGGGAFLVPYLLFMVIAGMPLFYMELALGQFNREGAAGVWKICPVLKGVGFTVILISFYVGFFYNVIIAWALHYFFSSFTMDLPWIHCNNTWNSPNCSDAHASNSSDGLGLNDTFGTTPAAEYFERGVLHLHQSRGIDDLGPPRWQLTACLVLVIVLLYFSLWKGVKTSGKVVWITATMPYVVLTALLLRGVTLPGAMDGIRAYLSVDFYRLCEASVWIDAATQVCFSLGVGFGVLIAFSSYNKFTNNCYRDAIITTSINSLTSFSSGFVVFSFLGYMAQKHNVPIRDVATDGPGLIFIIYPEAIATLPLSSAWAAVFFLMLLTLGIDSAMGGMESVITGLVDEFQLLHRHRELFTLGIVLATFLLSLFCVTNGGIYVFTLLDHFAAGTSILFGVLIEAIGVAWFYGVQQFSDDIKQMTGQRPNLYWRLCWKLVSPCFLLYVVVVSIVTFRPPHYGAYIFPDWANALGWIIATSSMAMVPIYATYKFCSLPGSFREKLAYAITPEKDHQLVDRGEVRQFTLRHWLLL
Procedure: Dopamine uptake inhibition was determined as described by Janowsky et al. (Neurochem. 1986, 46:1272-1276) with [^3H]DA as tracer and GBR12909 as reference.
[^3H]Dopamine uptake inhibition is as provided below:
Tissue preparation—A crude synaptosomal membrane preparation from various regions of rat brain was prepared as described by Berger et al. (Eur. J. Pharmacol. 1985, 107:289-290). Brain tissue from adult male Sprague-Dawley rats (150-200 g) was homogenized in 10 volumes of ice-cold sucrose (0.32 M) using a Teflon glass homogenizer, and centrifuged at 1000 g for 10 min. […] The final protein concentration was 100-200 μg protein/mL, as determined by the method of Lowry et al. (J. Biol. Chem. 1951, 193:265-275).
The uptake of [^3H]dopamine in a crude synaptosomal preparation was measured as described by Harris et al. (Life Sci. 1973, 13:303-312). […] The filters were rinsed three times with 4 mL of ice-cold buffer (Tris-HCl, 50 mM, pH 7.7, containing 120 mM NaCl) and the radioactivity remaining on the filters was measured by conventional liquid scintillation spectrometry. […]
Assay tubes contained 250 μL of the tissue preparation, 50 μL of [^3H]dopamine (40 nM) 200 μL of buffer or various uptake inhibitors, and 1.0 mL of Krebs-Ringer bicarbonate buffer (pH 7.4). […] Radioactivity remaining on the filters was measured by conventional liquid scintillation spectrometry.

Serotonin reuptake = target: T2, Serotonin reuptake (Rattus norvegicus, UniProt P31652); assay: Serotonin re-uptake inhibition, synaptosomal, [3H]5-HT as tracer; type: biochemical; conditions: [3H]5-HT tracer, imipramine as reference, read-out: IC50 (nmol/L), Serotonin reuptake
T2 construct: from tissue
T2 sequence (P31652 whole entry): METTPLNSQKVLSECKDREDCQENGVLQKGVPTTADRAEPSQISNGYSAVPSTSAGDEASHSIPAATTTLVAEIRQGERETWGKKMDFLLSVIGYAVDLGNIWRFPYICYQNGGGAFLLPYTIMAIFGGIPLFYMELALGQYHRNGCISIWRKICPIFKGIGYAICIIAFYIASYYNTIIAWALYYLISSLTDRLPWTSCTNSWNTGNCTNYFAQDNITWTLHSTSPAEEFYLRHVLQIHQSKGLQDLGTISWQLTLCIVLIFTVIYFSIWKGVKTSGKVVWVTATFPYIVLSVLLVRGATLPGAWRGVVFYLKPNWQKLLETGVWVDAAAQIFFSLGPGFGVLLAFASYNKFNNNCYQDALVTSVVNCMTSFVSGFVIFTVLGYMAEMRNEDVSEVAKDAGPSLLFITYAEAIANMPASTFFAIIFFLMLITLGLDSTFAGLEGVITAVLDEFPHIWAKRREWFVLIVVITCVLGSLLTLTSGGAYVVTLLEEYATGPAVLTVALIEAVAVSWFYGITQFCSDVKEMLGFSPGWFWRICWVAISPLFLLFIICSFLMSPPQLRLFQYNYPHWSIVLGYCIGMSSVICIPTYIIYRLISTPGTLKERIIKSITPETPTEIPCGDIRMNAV
Procedure: Serotonin re-uptake inhibition was determined by means of synaptosomal re-uptake inhibition as described by Perovic & Muller et al. (Arzneim-Forsch. Drug. Res. 1995, 45:1145-1148) with [^3H]5-HT as tracer and imipramine as reference.

Norepinephrine uptake = target: T3, Norepinephrine uptake (Rattus norvegicus, UniProt Q63380); assay: Norepinephrine uptake, [3H]NE as tracer; type: biochemical; conditions: [3H]NE tracer, protriptyline as reference; read-out: IC50 (nmol/L), Norepinephrine
T3 construct: from tissue
T3 sequence (Q63380 1-617): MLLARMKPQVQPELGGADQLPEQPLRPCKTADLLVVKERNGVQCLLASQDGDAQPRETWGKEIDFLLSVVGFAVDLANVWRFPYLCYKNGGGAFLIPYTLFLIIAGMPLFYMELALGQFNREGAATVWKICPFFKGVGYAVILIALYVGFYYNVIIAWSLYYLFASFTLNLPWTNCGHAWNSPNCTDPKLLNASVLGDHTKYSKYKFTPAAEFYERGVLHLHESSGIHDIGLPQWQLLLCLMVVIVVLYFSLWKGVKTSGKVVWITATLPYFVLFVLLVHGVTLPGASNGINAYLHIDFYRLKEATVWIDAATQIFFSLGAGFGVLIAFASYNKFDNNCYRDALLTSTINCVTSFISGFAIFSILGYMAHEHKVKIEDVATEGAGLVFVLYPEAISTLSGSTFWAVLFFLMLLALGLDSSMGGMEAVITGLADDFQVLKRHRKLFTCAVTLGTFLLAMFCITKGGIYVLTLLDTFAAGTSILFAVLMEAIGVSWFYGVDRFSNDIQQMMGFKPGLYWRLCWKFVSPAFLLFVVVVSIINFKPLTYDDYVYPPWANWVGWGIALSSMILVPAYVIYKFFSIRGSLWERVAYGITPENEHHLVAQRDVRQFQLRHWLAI
Procedure: Norepinephrine uptake was determined as described in the Perovic & Muller work with [^3H]NE as tracer and protriptyline as reference.

5-HT1A receptor = target: T4, 5-HT1A receptor (Homo sapiens, UniProt P08908); assay: 5-HT1A binding assay, [3H]8-OH-DPAT as ligand; conditions: 8-OH-DPAT as reference; for IC50: read-out: IC50 (nmol/L), 5-HT1A
T4 sequence (P08908 1-422): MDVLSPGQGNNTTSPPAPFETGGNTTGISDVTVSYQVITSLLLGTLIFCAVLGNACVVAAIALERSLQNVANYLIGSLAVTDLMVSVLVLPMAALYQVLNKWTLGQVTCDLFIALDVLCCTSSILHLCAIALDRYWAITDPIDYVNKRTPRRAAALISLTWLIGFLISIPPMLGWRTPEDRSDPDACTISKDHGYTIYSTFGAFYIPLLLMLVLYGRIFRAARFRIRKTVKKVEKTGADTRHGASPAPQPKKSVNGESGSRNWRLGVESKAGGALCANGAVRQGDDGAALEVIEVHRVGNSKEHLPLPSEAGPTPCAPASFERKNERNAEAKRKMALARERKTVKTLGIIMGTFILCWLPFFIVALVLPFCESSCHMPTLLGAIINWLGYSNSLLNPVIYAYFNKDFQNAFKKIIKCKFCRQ
Procedure: Binding properties at the 5-HT1A receptor were determined by means of the 5-HT1A binding assay as described in the literature by Mulheron et al. (J. Biol. Chem. 1994, 269:12954-12962) with [^3H]8-OH-DPAT as ligand and 8-OH-DPAT as reference.

IC50 (Dopamine uptake) | IC50 (Serotonin reuptake) | IC50 (Norepinephrine uptake) | Ki (5-HT1A receptor) | IC50 (5-HT1A receptor) | melting point | SMILES
> 200 nmol/L | 51 to 100 nmol/L | 101 to 150 nmol/L | 101 to 150 nM | 151 to 200 nmol/L |  | N#Cc1cnc2[nH]cc(CCCCN3CCN(c4ccc5oc(C(N)=O)cc5c4)CC3)c2c1 [Example 1, 5-{4-[4-(5-Cyano-1H-pyrrolo[2,3-b]pyridine-3-yl)-butyl]-piperazin-1-yl}-benzofuran-2-carboxylic acid amide]
> 200 nmol/L | > 200 nmol/L | 151 to 200 nmol/L | 1 to 50 nM | 51 to 100 nmol/L |  | N#Cc1ccc2[nH]cc(CCCCN3CCN(c4ccc5oc(C(N)=O)cc5c4)CC3)c2n1 [Example 2, 5-{4-[4-(5-Cyano-1H-pyrrolo[3,2-b]pyridine-3-yl)-butyl]-piperazin-1-yl}-benzofuran-2-carboxylic acid amide]
 |  |  |  |  | 240 to 242 °C | N#Cc1cnc2[nH]cc(CCCCN3CCC(Oc4ccc5c(c4)OCCO5)CC3)c2c1 [Example 3, 3-{4-[4-(2,3-Dihydro-benzo[1,4]dioxin-6-yloxy)-piperidin-1-yl]-butyl}-1H-pyrrolo[2,3-b]pyridine-5-carbonitrile]
